According to ChEMBL document CHEMBL5634160, “Synthesis, biological evaluation and action mechanism of 7H-[1,2,4] triazolo [3,4-b] [1,3,4] thiadiazine-phenylhydrazone derivatives as α-glucosidase inhibitors” (Eur J Med Chem, 2023):
One block for each compound: values may come before it.

Experiments:
[1] = target: T1, Alpha-glucosidase (Saccharomyces cerevisiae S288c, UniProt P53341+P38158+P07265); assay: Inhibition of Saccharomyces cerevisiae alpha-glucosidase using nitrophenol-alpha-D-glucopyranoside (pNPG) as substrate incubated for 15 mins; format: protein assay
[2] = Cytotoxicity against human HEK293 cells assessed as cell viability at 150 uM measured after 24 hrs by MTT assay relative to control; format: toxicity, cell-based; settings: read-out: Activity
[3] = target: T2, Alpha-glucosidase (Saccharomyces cerevisiae S288c) (UniProt P53341+P38158+P07265); assay: Binding affinity to Saccharomyces cerevisiae alpha-glucosidase assessed as decrease in protein stability by measuring beta-sheet structure at 5 uM measured after 5 mins by CD spectrum assay (reference value: 4.30%); design: scale not given: the % may be the effect or the level left
[4] = target: CYP2E1 (Rattus norvegicus, UniProt P05182); assay: Inhibition of CYP2E1 in rat liver microsomes assessed as remaining activity at 100 uM measured after 30 mins by LC-MS/MS analysis; format: ADME, Microsome; settings: read-out: Activity
CYP2E1, sequence (P05182 whole entry): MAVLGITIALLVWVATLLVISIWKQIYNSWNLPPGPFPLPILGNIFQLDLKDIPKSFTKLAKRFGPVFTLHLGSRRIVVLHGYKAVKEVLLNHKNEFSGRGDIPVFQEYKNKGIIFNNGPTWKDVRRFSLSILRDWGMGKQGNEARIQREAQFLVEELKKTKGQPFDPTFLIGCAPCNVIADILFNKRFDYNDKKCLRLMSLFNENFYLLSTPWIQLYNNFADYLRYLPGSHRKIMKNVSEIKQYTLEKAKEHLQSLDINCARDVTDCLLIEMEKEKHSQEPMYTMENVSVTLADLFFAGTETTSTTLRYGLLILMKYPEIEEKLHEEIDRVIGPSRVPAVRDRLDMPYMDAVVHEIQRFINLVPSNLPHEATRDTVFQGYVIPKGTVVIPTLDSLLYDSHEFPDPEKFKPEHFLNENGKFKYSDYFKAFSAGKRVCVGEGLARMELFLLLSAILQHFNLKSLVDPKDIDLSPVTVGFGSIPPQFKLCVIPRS

[5] = target: T2, Alpha-glucosidase (Saccharomyces cerevisiae S288c); assay: Binding affinity to Saccharomyces cerevisiae alpha-glucosidase assessed as decrease in protein stability by measuring alpha-helix structure at 20 uM measured after 5 mins by CD spectrum assay (reference value: 84.50%); design: scale not given: the % may be the effect or the level left
[6] = system: CYP2B6; assay: Inhibition of CYP2B6 in rat liver microsomes assessed as remaining activity at 100 uM measured after 30 mins by LC-MS/MS analysis; format: ADME, Microsome; settings: read-out: Activity
[7] = target: T2, Alpha-glucosidase (Saccharomyces cerevisiae S288c); assay: Binding affinity to Saccharomyces cerevisiae alpha-glucosidase assessed as decrease in fluorescence intensity peak 2 by 3D spectra assay; format: protein assay; design: scale not given: the % may be the effect or the level left
[8] = target: T1, Alpha-glucosidase; assay: Competitive inhibition of Saccharomyces cerevisiae alpha-glucosidase using nitrophenol-alpha-D-glucopyranoside (pNPG) as substrate at 24 to 48 uM measured after 15 mins by Lineweaver-Burk plot analysis; format: protein assay
[9] = target: T2, Alpha-glucosidase (Saccharomyces cerevisiae S288c); assay: Binding affinity to Saccharomyces cerevisiae alpha-glucosidase assessed as decrease in protein stability by measuring random coil structure at 20 uM measured after 5 mins by CD spectrum assay (reference value: 6.20%); design: scale not given: the % may be the effect or the level left
[10] = system: Mus musculus; assay: Anti-diabetic activity against 16 hrs fasted male Kunming mouse assessed as AUC of postprandial blood glucose at 20 mg/kg, IG after 30 mins […] of sucrose administered and measured upto 2 hrs by sucrose tolerance test (reference value: 810.40 +/- 75.53 mM.min); format: functional, organism-based
[11] = target: T2, Alpha-glucosidase (Saccharomyces cerevisiae S288c); assay: Binding affinity to Saccharomyces cerevisiae alpha-glucosidase assessed as decrease in protein stability by measuring beta-turn structure at 7.5 uM measured after 5 mins by CD spectrum assay (reference value: 6.80%); design: scale not given: the % may be the effect or the level left
[12] = target: T2, Alpha-glucosidase (Saccharomyces cerevisiae S288c); assay: Binding affinity to Saccharomyces cerevisiae alpha-glucosidase assessed as quenching constant value (Ka) by fluorescence quenching study; format: protein assay
[13] = target: T2, Alpha-glucosidase (Saccharomyces cerevisiae S288c); assay: Binding affinity to Saccharomyces cerevisiae alpha-glucosidase assessed as decrease in protein stability by measuring alpha-helix structure at 7.5 uM measured after 5 mins by CD spectrum assay (reference value: 84.50%); design: scale not given: the % may be the effect or the level left
[14] = Cytotoxicity against human HEK293 cells assessed as cell viability at 50 uM measured after 24 hrs by MTT assay relative to control; format: toxicity, cell-based; settings: read-out: Activity
[15] = target: T2, Alpha-glucosidase (Saccharomyces cerevisiae S288c); assay: Binding affinity to Saccharomyces cerevisiae alpha-glucosidase assessed as decrease in protein stability by measuring alpha-helix structure at 15 uM measured after 5 mins by CD spectrum assay (reference value: 84.50%); design: scale not given: the % may be the effect or the level left
[16] = target: T2, Alpha-glucosidase (Saccharomyces cerevisiae S288c); assay: Binding affinity to Saccharomyces cerevisiae alpha-glucosidase assessed as decrease in protein stability by measuring beta-sheet structure at 20 uM measured after 5 mins by CD spectrum assay (reference value: 4.30%); design: scale not given: the % may be the effect or the level left
[17] = system: CYP2D6; assay: Inhibition of CYP2D6 in rat liver microsomes assessed as remaining activity at 100 uM measured after 30 mins by LC-MS/MS analysis; format: ADME, Microsome; settings: read-out: Activity
[18] = system: Mus musculus; assay: Anti-diabetic activity against 16 hrs fasted male Kunming mouse assessed as decrease in postprandial blood glucose at 20 mg/kg, IG after 30 mins […] of sucrose administered and measured upto 2 hrs by sucrose tolerance test; format: functional; settings: po
[19] = target: T2, Alpha-glucosidase (Saccharomyces cerevisiae S288c); assay: Binding affinity to Saccharomyces cerevisiae alpha-glucosidase assessed as decrease in fluorescence intensity at 0 to 45 uM by fluorescence quenching study relative to control; format: protein assay; design: scale not given: the % may be the effect or the level left; settings: dose 0-45 µM
[20] = target: T2, Alpha-glucosidase (Saccharomyces cerevisiae S288c); assay: Binding affinity to Saccharomyces cerevisiae alpha-glucosidase assessed as decrease in protein stability by measuring beta-turn structure at 20 uM measured after 5 mins by CD spectrum assay (reference value: 6.80%); design: scale not given: the % may be the effect or the level left
[21] = target: T2, Alpha-glucosidase (Saccharomyces cerevisiae S288c); assay: Binding affinity to Saccharomyces cerevisiae alpha-glucosidase assessed as decrease in protein stability by measuring beta-turn structure at 5 uM measured after 5 mins by CD spectrum assay (reference value: 6.80%); design: scale not given: the % may be the effect or the level left
[22] = target: T2, Alpha-glucosidase (Saccharomyces cerevisiae S288c); assay: Binding affinity to Saccharomyces cerevisiae alpha-glucosidase assessed as decrease in protein stability by measuring beta-turn structure at 10 uM measured after 5 mins by CD spectrum assay (reference value: 6.80%); design: scale not given: the % may be the effect or the level left
[23] = target: T2, Alpha-glucosidase (Saccharomyces cerevisiae S288c); assay: Binding affinity to Saccharomyces cerevisiae alpha-glucosidase assessed as decrease in fluorescence intensity peak 1 by 3D spectra assay; format: protein assay; design: scale not given: the % may be the effect or the level left
[24] = target: T2, Alpha-glucosidase (Saccharomyces cerevisiae S288c); assay: Binding affinity to Saccharomyces cerevisiae alpha-glucosidase assessed as decrease in protein stability by measuring beta-sheet structure at 7.5 uM measured after 5 mins by CD spectrum assay (reference value: 4.30%); design: scale not given: the % may be the effect or the level left
[25] = Cytotoxicity against human HEK293 cells assessed as cell viability at 200 uM measured after 24 hrs by MTT assay relative to control; format: toxicity, cell-based; settings: read-out: Activity
[26] = target: T2, Alpha-glucosidase (Saccharomyces cerevisiae S288c); assay: Binding affinity to Saccharomyces cerevisiae alpha-glucosidase assessed as decrease in protein stability by measuring beta-sheet structure at 15 uM measured after 5 mins by CD spectrum assay (reference value: 4.30%); design: scale not given: the % may be the effect or the level left
[27] = system: CYP2C19; assay: Inhibition of CYP2C19 in rat liver microsomes assessed as remaining activity at 100 uM measured after 30 mins by LC-MS/MS analysis; format: ADME, Microsome; settings: read-out: Activity
[28] = target: T2, Alpha-glucosidase (Saccharomyces cerevisiae S288c); assay: Binding affinity to Saccharomyces cerevisiae alpha-glucosidase assessed as decrease in protein stability by measuring random coil structure at 7.5 uM measured after 5 mins by CD spectrum assay (reference value: 6.20%); design: scale not given: the % may be the effect or the level left
[29] = system: CYP3A4; assay: Inhibition of CYP3A4 in rat liver microsomes assessed as remaining activity at 100 uM measured after 30 mins by LC-MS/MS analysis; format: ADME, Microsome; settings: read-out: Activity
[30] = target: T1, Alpha-glucosidase; assay: Non-competitive inhibition of Saccharomyces cerevisiae alpha-glucosidase using nitrophenol-alpha-D-glucopyranoside (pNPG) as substrate at 24 to 48 uM measured after 15 mins by Lineweaver-Burk plot analysis; format: protein assay
[31] = target: T2, Alpha-glucosidase (Saccharomyces cerevisiae S288c); assay: Binding affinity to Saccharomyces cerevisiae alpha-glucosidase assessed as decrease in protein stability by measuring alpha-helix structure at 10 uM measured after 5 mins by CD spectrum assay (reference value: 84.50%); design: scale not given: the % may be the effect or the level left
[32] = Cytotoxicity against human HEK293 cells assessed as cell viability at 100 uM measured after 24 hrs by MTT assay relative to control; format: toxicity, cell-based; settings: read-out: Activity
[33] = system: CYP2C9; assay: Inhibition of CYP2C9 in rat liver microsomes assessed as remaining activity at 100 uM measured after 30 mins by LC-MS/MS analysis; format: ADME, Microsome; settings: read-out: Activity
[34] = target: T2, Alpha-glucosidase (Saccharomyces cerevisiae S288c); assay: Binding affinity to Saccharomyces cerevisiae alpha-glucosidase assessed as decrease in protein stability by measuring random coil structure at 10 uM measured after 5 mins by CD spectrum assay (reference value: 6.20%); design: scale not given: the % may be the effect or the level left
[35] = target: T2, Alpha-glucosidase (Saccharomyces cerevisiae S288c); assay: Binding affinity to Saccharomyces cerevisiae alpha-glucosidase assessed as decrease in protein stability by measuring random coil structure at 15 uM measured after 5 mins by CD spectrum assay (reference value: 6.20%); design: scale not given: the % may be the effect or the level left
[36] = target: T3, CYP1A2 (Rattus norvegicus, UniProt P04799); assay: Inhibition of CYP1A2 in rat liver microsomes assessed as remaining activity at 100 uM measured after 30 mins by LC-MS/MS analysis; format: ADME, Microsome; settings: read-out: Activity
T3 sequence (P04799 whole entry): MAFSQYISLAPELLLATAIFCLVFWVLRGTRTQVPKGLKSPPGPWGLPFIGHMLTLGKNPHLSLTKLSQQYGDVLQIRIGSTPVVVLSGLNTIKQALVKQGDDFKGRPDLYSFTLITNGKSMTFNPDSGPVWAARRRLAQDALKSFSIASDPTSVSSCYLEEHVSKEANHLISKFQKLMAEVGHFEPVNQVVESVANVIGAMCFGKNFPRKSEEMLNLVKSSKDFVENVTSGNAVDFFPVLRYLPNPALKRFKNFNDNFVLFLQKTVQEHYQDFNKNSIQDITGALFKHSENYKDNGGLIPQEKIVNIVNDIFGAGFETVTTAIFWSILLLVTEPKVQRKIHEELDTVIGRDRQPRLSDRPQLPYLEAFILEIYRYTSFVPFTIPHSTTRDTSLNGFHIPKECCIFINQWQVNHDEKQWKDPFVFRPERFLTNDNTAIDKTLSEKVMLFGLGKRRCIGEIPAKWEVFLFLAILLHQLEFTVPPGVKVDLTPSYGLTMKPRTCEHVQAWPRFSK

[37] = target: T2, Alpha-glucosidase (Saccharomyces cerevisiae S288c); assay: Binding affinity to Saccharomyces cerevisiae alpha-glucosidase assessed as quenching constant value (Kq) by fluorescence quenching study; format: protein assay
[38] = target: T2, Alpha-glucosidase (Saccharomyces cerevisiae S288c); assay: Binding affinity to Saccharomyces cerevisiae alpha-glucosidase assessed as decrease in protein stability by measuring beta-sheet structure at 10 uM measured after 5 mins by CD spectrum assay (reference value: 4.30%); design: scale not given: the % may be the effect or the level left
[39] = target: T2, Alpha-glucosidase (Saccharomyces cerevisiae S288c); assay: Binding affinity to Saccharomyces cerevisiae alpha-glucosidase assessed as decrease in protein stability by measuring beta-turn structure at 15 uM measured after 5 mins by CD spectrum assay (reference value: 6.80%); design: scale not given: the % may be the effect or the level left
[40] = target: T2, Alpha-glucosidase (Saccharomyces cerevisiae S288c); assay: Binding affinity to Saccharomyces cerevisiae alpha-glucosidase assessed as quenching constant value (Ksv) by fluorescence quenching study; format: protein assay
[41] = target: T2, Alpha-glucosidase (Saccharomyces cerevisiae S288c); assay: Binding affinity to Saccharomyces cerevisiae alpha-glucosidase assessed as decrease in protein stability by measuring random coil structure at 5 uM measured after 5 mins by CD spectrum assay (reference value: 6.20%); design: scale not given: the % may be the effect or the level left
[42] = target: T2, Alpha-glucosidase (Saccharomyces cerevisiae S288c); assay: Binding affinity to Saccharomyces cerevisiae alpha-glucosidase assessed as decrease in protein stability by measuring alpha-helix structure at 5 uM measured after 5 mins by CD spectrum assay (reference value: 84.50%); design: scale not given: the % may be the effect or the level left

IC50 [1]: 213.5 µM
Compound: Oc1ccc(/C=N/Nc2nnc3n2N=C(c2ccccc2)CS3)cc1

IC50 [1]: 114.9 µM
Compound: COc1ccccc1/C=N/Nc1nnc2n1N=C(c1ccccc1)CS2

Activity [3]: 5.8% | activity at 0.5 h, 100 µM [4]: 92.6% | Activity [5]: 57.3% | activity at 0.5 h, 100 µM [6]: 98.7% | Activity [7]: 37.4% | Ki [8]: 40.46 µM | Activity [9]: 21.2% | Activity [11]: 10.6% | Ka [12]: 3.16 10^4L/mol | Activity [13]: 63.4% | Activity [15]: 60.2% | Activity [16]: 7% | activity at 0.5 h, 100 µM [17]: 92.3% | Activity [19]: 87.7% | Activity [20]: 11.6% | Activity [21]: 10.1% | Activity [22]: 10.8% | Activity [23]: 31.9% | Activity [24]: 6.1% | Activity [26]: 6.6% | activity at 0.5 h, 100 µM [27]: 75.4% | Activity [28]: 17.5% | activity at 0.5 h, 100 µM [29]: 96.5% | Ki [30]: 87.56 µM | Activity [31]: 62.7% | activity at 0.5 h, 100 µM [33]: 90.7% | Activity [34]: 18.4% | Activity [35]: 19.7% | activity at 0.5 h, 100 µM [36]: 77.7% | Kq [37]: 1.57 10^13L/mol | IC50 [1]: 31.23 µM | Activity [38]: 6.3% | Activity [39]: 11.2% | KSV [40]: 1.57 10^5L/mol | Activity [41]: 16% | Activity [42]: 66.5%
Compound: COc1cc(/C=N/Nc2nnc3n2N=C(c2ccccc2)CS3)cc(OC)c1O
viability at 24 h, 150 µM [2]: 81.2% | AUC [10]: 723 mM·min | viability at 24 h, 50 µM [14]: 100% | inhibition in vivo at 20 mg/kg [18]: 24.4% | viability at 24 h, 200 µM [25]: 71.6% | viability at 24 h, 100 µM [32]: 90.5%

IC50 [1]: 32.96 µM
Compound: Oc1ccc(/C=N/Nc2nnc3n2N=C(c2ccccc2)CS3)c(O)c1
